Assay results as given in patent US20070179147A1, “Methods of treating and preventing Alzheimer's disease” (priority 2006, published 2007).
Where “and” joins values, the source holds several entries; their conditions need not be identical. Equal values may be shown once. Entries after “also recorded” stand apart in the source; their conditions may differ. Read-outs that look alike come from different tables or passages of the source.

Columns and labels:
primary cortical neurons [1] = assay: Neuroprotection against H2O2-induced oxidative stress (MTS assay), comparison with known neuroprotectants; assay type: cell-based, rat; conditions: 24 h pre-treatment, harsh H2O2 treatment (150 μM)
Method: Twice, half the amount of medium was replaced with fresh neurobasal medium containing no antioxidants. […] The other known neuroprotectants were dissolved in appropriate solvents and diluted to the final concentrations as indicated. […] Each assay was performed in triplicate. After 24 hours, the cultures were evaluated for viability and mitochondrial function using a standard MTS Assay (Promega). The manufacturer's protocols were followed. Experiments were carried out in accordance with the above study design. […] Ginkgo biloba was dissolved in dH2O at a concentration of 6 mg/ml, and further diluted in the neurobasal medium to final concentrations of 2.5 μ/ml, 5 μg/ml, 25 μg/ml, and 250 μg/ml. […] The plates were returned to the incubator at 37° C. with 5% CO2 for one hour. Subsequently, 20 μl MTS reagent was added to each well and the plates were incubated at 37° C. with 5% CO2 for an additional two hours. The absorbance at 490 nm for each well was recorded with the BioRad plate reader (Model 550). Wells containing medium alone were used as blanks. Each data point is the average of three separate assay wells. […] Two-week-old primary cultures were used for this set of study.

cortical neurons [2] = conditions: for protection from neuronal cell death (morphology): 5 μM, hypoxia
Method: Experiments were performed in a 96-well plate format. Cortical neurons were seeded at a density of 50,000 cells/well on a poly-D-lysine coated surface, and cultured in serum-free medium (NB plus B27 supplement) to obtain cultures highly enriched for neurons. Neurons were cultured for over 14 d.i.v. to increase cell susceptibility to excitatory amino acids (Jiang et al., 2001). Six replicate wells were treated as a group to facilitate assay quantitation.
Treatment with drug was continued during and subsequent to a 24-hour period of hypoxia. Cellular morphology and function (MTS and LDH assays) were measured 24 or 48 hours subsequent to the hypoxic insult.
The MTS assay is a colorimetric assay that measures the mitochondrial function in metabolically active cells. This measurement indirectly reflects cell viability. […] 20 μl of MTS reagent (Promega) are added to each well of the 96 well assay plates containing the samples in 100 μl of culture medium. The plate is then incubated in a humidified, 5% CO2 atmosphere at 37° C. for 1-2 hours until the color is fully developed. The absorbance at 490 nm was recorded using a Bio-Rad 96 well plate reader.
The lactate dehydrogenase (LDH) assay is based on the reduction of NAD by the action of LDH. The resulting reduced NAD (NADH) is utilized in the stoichiometric conversion of a tetrazolium dye. If cell-free aliquots of medium from cultures given different treatments are assayed, then the amount of LDH activity can be used as an indicator of relative cell death as well as a function of membrane integrity. A 50 μl aliquot of culture medium from a well in tested 96-well plate is transferred into a well in unused plate and supplemented with 25 μl of equally-mixed Substrate, Enzyme and Dye Solutions (Sigma). The preparation is incubated at room temperature for 20-30 minutes, and then measured spectrophotometrically at wavelength of 490 nm.

[3] = test system: male Sprague-Dawley rats, middle cerebral artery occlusion
cortical neurons [4] = conditions: for protection (Comments): 24 h pre-treatment, 6 h H/H, 24 h post, culture age 15 days, test range started from 5 μM
Method: (§1) Experiments were performed in a 96-well plate format. Cortical neurons were seeded at a density of 50,000 cells/well on a poly-D-lysine coated surface, and cultured in serum-free medium (NB plus B27 supplement) to obtain cultures highly enriched for neurons. […] Six replicate wells were treated as a group to facilitate assay quantitation.
(§2) The extreme H/H model (0.4 mM glucose) is a mimic of the environment in the central core of an infarct; the mild H/H model (1.63 mM glucose) is a mimic of the environment in the penumbra during MCAO; and the hypoxia only model (neurons in normal in vitro glucose concentration—25 mM) is a mimic of the environment in the penumbra after reperfusion since the possible cell death after reperfusion is predominantly a result of the hypoxic effect rather then energy failure.
Hypoxia/hypoglycemia was obtained by reducing glucose concentration down to 0.4 mM and 1.63 mM for extreme H/H and mild H/H, respectively. BSS (116.0 mM NaCl, 5.4 mM KCl, 0.8 mM MgSO4.e7H20, 1.0 mM NaH2PO4, 1.8 mM CaCl2.2H2O, 26.2 mM NaHCO3, and 0.01 mM glycine) or BSS with 25 mM glucose were de-gassed for 5 minutes prior to use. Culture medium in the plates for hypoxia was replaced with BSS or BSS with glucose. Meanwhile, culture medium in the plates for normoxia was replaced with non de-gassed BSS or BSS with glucose. Cells were committed to hypoxic conditions by transferring the plates into a sealed container (Modular Incubator Chamber-101™, Billups-Rothenberg, Inc.), applying a vacuum for 20 minutes to remove oxygen or other gases from the culture medium, and then refilling the chamber with 5% CO2 and 95% N2 at a pressure of 30 psi for 1 minute. The level of O2 in the chamber was determined to be zero with an O2 indicator (FYRITE Gas Analyzer, Bacharach, Inc.). Culture plates were maintained in the chamber for 6 hours. As an experimental control, duplicate culture plates were maintained under normal culture condition (5% CO2 and 95% ambient air) for the same duration. After a 6-hour treatment, plates were removed from the chamber and the medium in both the hypoxic and normoxic cultures was replaced with a termination solution (DMEM supplemented with 1×sodium pyruvate, 10.0 mM HEPES, and 1×N2 supplement) containing 25 mM glucose and cultured in 5% CO2 and 95% ambient air conditions. […] MK801 was utilized as a positive control. Mitochondrial function and cell death were evaluated at 24 or 48 hours post H/H insult with the MTS and LDH analyses (see below).
The MTS assay is a colorimetric assay that measures the mitochondrial function in metabolically active cells. This measurement indirectly reflects cell viability. […] The absorbance at 490 nm was recorded using a Bio-Rad 96 well plate reader. […]

[5] = test system: enriched neuronal cultures (cerebellar tissue); assay: In vitro models of excitotoxicity (H/H, glutamate, staurosporine, veratridine), MTT assay
Method: Enriched neuronal cultures were prepared from 15-day-old Sprague-Dawley rat embryos. Using aseptic techniques, the rat embryos were removed from the uterus and placed in sterile neuronal culture medium. Using a dissecting microscope, the brain tissue was removed from each embryo, with care taken to discard the meninges and blood vessels. The cerebellum was separated by gross dissection under the microscope, and only cerebellar tissue was used for the culture. Cells were dissociated by trituration of the tissue and were plated at a density of 5×10^5 cells/well onto 48-well culture plates precoated with poly(L-lysine). Cultures were maintained in a medium containing equal parts of Eagle's basal medium (without glutamine) and Ham's F-12k medium supplemented with 10% heat-inactivated horse serum, 10% fetal bovine serum, 600 μg/ml glucose, 100 μg/ml glutamine, 50 U/ml penicillin, and 50 μg/ml streptomycin. After 48 h, 10 μM cytosine arabinoside was added to inhibit non-neuronal cell division. Cells were used in experiments after 7 days in culture.
Four in vitro models of excitotoxicity were studied. Cells were either exposed to H/H conditions for 3 hrs or treated for 45 min with one of glutamate (100 μM), staurosporine (1 μM) or veratridine (10 μM). All cells were co-treated with or without PAN-811 (10 μM) in Locke's solution. At the conclusion of the respective excitotoxic exposures, the condition medium (original) was replaced. H/H was induced by incubating the cells in a humidified airtight chamber saturated with 95% nitrogen, 5% CO2 gas for 3 hrs in Locke's solution without added glucose.
Twenty-four hours after the excitotoxic insult, cell viability assessments were made. Cell damage was quantitatively assessed using a tetrazolium salt colorimetric assay with 3-(4,5-dimethylthiazol-2-yl)-2,5-diphenyltetrazolium (MTT; Sigma Chemical Co., St. Louis, Mo.). Briefly, the dye was added to each well (final concentration, 1.5 mg/ml), cells were incubated with MTT-acidified isopropanol (0.1 N HCl in isopropanol), and the absorbance intensity (540 nm) of each sample was measured in a 96-well plate reader. Values are expressed relative to vehicle-treated control cells that were maintained on each plate, and the percentage change in cell viability was calculated.

[6] = test system: co-cultured cortical and striatal neurons; assay: Protection from Aβ1-42 or Aβ25-35 induced neurotoxicity (morphology, LDH, MTS)
Method: Experiments were performed in a 96-well plate format. Cortical neurons were seeded at a density of 50,000 cells/well on poly-D-lysine coated surface, and cultured in serum-free medium (NB plus B27 supplement containing AO or without AO) to obtain cultures high enriched for neurons. Neurons were cultured for over 14 d.i.v. to increase cell susceptibility to excitatory amino acids (Jiang et al., 2001, supra). Three to six replicate wells were treated as a group to facilitate assay quantitation.
Lyophilized Aβs were dissolved in de-ionized and distilled water to a final concentration of 400 μM, and aliquoted and stored at −20° C. Before use, an aliquot of Aβ was removed from freezer and incubated at 37° C. for 48 hours. Neurons were cultured in NB with B27 supplement containing AO or without AO under 5% CO2 and 95% ambient air, 37° C. At 2 or 3 weeks, the neurons were treated with pre-incubated Aβ and either non-incubated Aβ or Aβ35-25 served as experimental controls.
Treatment with 2μM PAN-811 or 1:12,500 PEG:EtOH (7:3 as vehicle control) was started by at most 3 hours following Aβ insult. The neurons remained in culture post-treatment for different time periods, from 1 to 16 days.
Neuronal cell death was morphologically evaluated.
The MTS assay is a colorimetric assay that measures the mitochondrial function in metabolically active cells. This measurement indirectly reflects cell viability. […] 10 μl of MTS reagent (Promega) are added to each well of the 96 well assay plates containing the samples in 50 μl of culture medium. The plate is then incubated in a humidified, 5% CO2 atmosphere at 37° C. for 1 hour until the color is fully developed. The absorbance at 490 nm was recorded using a Bio-Rad 96 well plate reader.
Lactate dehydrogenase (LDH) assay is based on the reduction of NAD by the action of LDH. The resulting reduced NAD (NADH) is utilized in the stoichiometric conversion of a tetrazolium dye. If cell-free aliquots of medium from cultures given different treatments are assayed, then the amount of LDH activity can be used as an indicator of relative cell death as well as a function of membrane integrity. A 35μl aliquot of culture medium from a well in a 96-well test plate is transferred into a well in unused plate and supplemented with 17.5 μl of equally mixed Substrate, Enzyme and Dye Solutions (Sigma). The preparation is incubated at room temperature for 30 minutes, and then measured spectrophotometrically at a wavelength of 490 nm.
Primary neurons were isolated from cortex and striatum of 17-day-old rat embryonic brain and seeded on 96-well plates at 50,000 cells/well in regular neurobasal medium (Neurobasal Medium supplemented with B27-AO) for 2-3 weeks.
Lyophilized Aβ1-42 and Aβ25-35 were dissolved in distilled, deionized water to a final concentration of 400 uM. Aliquots of the preparations were stored at −20° C. The day before the experiment, the peptides were shifted from −20° C. to 37° C. and incubated overnight at 37° C.
The neurons at 12-16 d.i.v. and 21-23 d.i.v. were insulted by adding 2.5 ul per well of either 400 uM Aβ1-42 or 400 uM Aβ25-35 (final concentration: 10 uM). Untreated and Aβ35-25-treated wells were taken as negative controls and 25 uM glutamate treated wells were set as the positive control. At the same time as or 2-3 hours after the initiation of Aβ insults, 1:5000 diluted PEG:EtOH (vehicle for PAN-811) as well as PAN-811 at concentrations of 0.25, 05., 1 and 2 μM were added to the Aβ insulted wells. The neurons were continuously incubated at 37° C., 5% CO2. Data were obtained from the readings of 3-6 replicate wells.

[7] = test system: enriched neuronal cultures (cerebellar tissue); assay: Neurotoxicity of PAN-811, 24 h treatment (MTT assay); conditions: highest concentration tested (100 μM)
Method: Enriched neuronal cultures were prepared from 15-day-old Sprague-Dawley rat embryos. Using aseptic techniques, the rat embryos were removed from the uterus and placed in sterile neuronal culture medium. Using a dissecting microscope, the brain tissue was removed from each embryo, with care taken to discard the meninges and blood vessels. The cerebellum was separated by gross dissection under the microscope, and only cerebellar tissue was used for the culture. Cells were dissociated by trituration of the tissue and were plated at a density of 5×10^5 cells/well onto 48-well culture plates precoated with poly(L-lysine). […]
Cells were treated with varying amounts of PAN-811 (0-100 μM) for 24 hrs. Cell viability was determined in the MTT assay.
Cell damage was quantitatively assessed using a tetrazolium salt colorimetric assay with 3-(4,5-dimethylthiazol-2-yl)-2,5-diphenyltetrazolium (MTT; Sigma Chemical Co., St. Louis, Mo.). Briefly, the dye was added to each well (final concentration, 1.5 mg/ml), cells were incubated with MTT-acidified isopropanol (0.1 N HCl in isopropanol), and the absorbance intensity (540 nm) of each sample was measured in a 96-well plate reader. Values are expressed relative to vehicle-treated control cells that were maintained on each plate, and the percentage change in cell viability was calculated.

cortical neurons [8] = assay: Extreme hypoxia/hypoglycemia (H/H) model, 0.4 mM glucose
Method: as §1, §2
Hypoxia/hypoglycemia was obtained by reducing glucose concentration down to 0.4 mM and 1.63 mM for extreme H/H and mild H/H, respectively. […] The level of O2 in the chamber was determined to be zero with an O2 indicator (FYRITE Gas Analyzer, Bacharach, Inc.). […] Mitochondrial function and cell death were evaluated at 24 or 48 hours post H/H insult with the MTS and LDH analyses (see below).
The MTS assay is a colorimetric assay that measures the mitochondrial function in metabolically active cells. […] The absorbance at 490 nm was recorded using a Bio-Rad 96 well plate reader. […]

primary cortical neurons [9] = assay: ROS generation in neuronal cells (c-DCF fluorescence); assay type: cell-based, rat; conditions: 10 μM
Method: Twice, half the amount of medium was replaced with fresh neurobasal medium without antioxidants. […] Untreated cells loaded with the dye were used as controls to calculate the c-DCF fluorescence change. Each assay was performed in triplicate. The c-DCF fluorescence at 485/520 nm (Ex/Em) for each well was recorded with the BMG Polar Star plate reader. Wells containing cells without dye were used as blanks. Each data point is the average of three separate assay wells. Untreated cells loaded with the dye were used as a control to calculate the c-DCF fluorescence change. Two-week-old primary cultures were used for the study. CM-H2DCFDA is a cell-permeant indicator for reactive oxygen species (ROS), which is non-fluorescent until the acetate groups are removed by intracellular esterases and oxidation occurs within the cell. It has been widely employed to detect the generation of ROS in cells and animals. Here, it has been used as a tool to assess the effects of PAN-811 on ROS generation in neuronal cells following the procedures described in this example. […] Experiments were repeated four times in different batches of cells and similar results were obtained. See FIG. 2 for the representative experiment.

[10] = Solubility of PAN-811 in solvents; conditions: PEG-300/EtOH vs EtOH
primary cortical neurons [11] = assay: Protection of neurons from H2O2-induced oxidative stress (60-70 μM H2O2, MTS assay); assay type: cell-based, rat; conditions: 1-10 μM, 24 h pre-treatment, H2O2 60-70 μM
Method: Twice, half amount of medium was replaced with fresh neurobasal medium containing no antioxidants. […] Each assay was performed in triplicate. […] After 24 hours, the cultures were evaluated for viability and mitochondrial function using a standard MTS Assay (Promega). The manufacturer's protocols were followed. […] The plates were put back into the incubator at 37° C. with 5% CO2 for one hour, then 20 μl MTS reagent was added to each well and plates were incubated at 37° C. with 5% CO2 for an additional two hours. The absorbance at 490 nm for each well was recorded with the BioRad plate reader (Model 550). Wells containing media alone were used as blanks. Each data point is the average of three separate assay wells. […] Three-week-old primary cultures were used for this set of study. Experiments were carried out following the same procedures as experiment 1. Two-week-old primary cultures were used for this study.

[12] = test system: primary neurons from cortex and striatum; assay: Neurotoxicity of Aβ peptides (morphology, LDH, MTS); assay type: cell-based, rat; conditions: for increase in LDH of the culture medium: 10 uM peptide, 16 day post-insult, neurons 12-16 d.i.v., 0% AO
[13] = 2 μM, 100% +AO, 1 day post-insult
[14] = 10 uM, 1-6 days post-insult, older neurons (21-23 d.i.v.), 90% AO

For `O=C(O)CCCC[C@@H]1CCSS1` (racemic) [lipoic acid, reference compound], the neuroprotective capacity (primary cortical neurons [1]; known neuroprotectants) was “minimal neuroprotective capacity”.
For `C[C@]12N[C@H](Cc3ccccc31)c1ccccc12` [MK801, reference compound], the “protection from neuronal cell death (morphology)” value (cortical neurons [2]) was “efficient protection from neuronal cell death”.
In the case of `NC(=S)N/N=C/c1ncccc1N` [PAN-811, 3-aminopyridine-2-carboxaldehyde thiosemicarbazone], the “Infarct volume, range” value ([3]; 1 mg/kg IV 10 minutes prior to MCAO) is reported as 42.36-387.08 mm^3, the “Infarct Volume (individual rat)” value ([3]; 1 mg/kg IV 10 minutes prior to MCAO, 24 hours after surgery) is reported as 42.36 mm^3 and 126.42 mm^3 and 143.74 mm^3 and 158.83 mm^3 and 196.18 mm^3 and 200.08 mm^3 and 218.54 mm^3 and 221.46 mm^3 and 224.32 mm^3 and 255.36 mm^3 and 267.40 mm^3 and 344.47 mm^3 and 375.59 mm^3 and 387.08 mm^3 and the “Infarct Volume, mean” value ([3]; 1 mg/kg IV 10 minutes prior to MCAO, 24 hours after surgery, n 14) is reported as 225.85 mm^3. For the same compound, the rats that died ([3]; of the 7 rats that died (4 severe strokes, 3 with SAH), 6 were vehicle rats) was 1, the tolerability ([3]; rat, in vivo) was “well tolerated and relatively non-toxic” and the “protection from mild H/H induced neurotoxicity” value (cortical neurons [4]; 2 μM) was “completely protected”. The “protection from H/H-induced mitochondria dysfunction and neuronal cell death” value (cortical neurons [4]; 5 μM, 24 h before and during 6-h H/H, MTS and LDH 17 h post insult) was “completely protected”, the “protection (Comments)” value (cortical neurons [4]; 5 μM) was 5 μM: 100% protected and the “protection (Comments)” value (cortical neurons [4]; 10 μM) was 10 μM: 100% protected. The “protection from damage by 3-hour hypoxia/hypoglycemia” value ([5]; 10 μM PAN-811) was 92%, the “protection from 1 μM staurosporine” value ([5]; 10 μM PAN-811, 45 min insult) was about 47% and the “protection from 10 μM veratridine” value ([5]; 10 μM PAN-811, 45 min insult) was about 39%. The “protection from 100 μM glutamate” value ([5]; 10 μM PAN-811, 45 min insult) was about 75%, the “protection from Aβ25-35 induced neuronal cell death, 3-week old neurons” value ([6]; 2 μM post-treatment (2 or 3h later), 10 μM Aβ25-35, 90% AO) was “well protected; also recorded: fully block” and the “MTS reading, 7-week-old mixed neurons” value [6, 13] was “slight reduction in the MTS reading”. For the same compound, the “morphology of neurons, 7-week-old mixed neurons” value [6, 13] was “well preserved the morphology of neurons”, the “protection from neuronal cell death (morphology monitoring)” value ([6]; 2μM, Aβ insult) was “efficient protection from neuronal cell death” and the “neuronal and neurite morphologies, younger neurons” value ([6]; 2 μM, at the same time as or 3 hours after Aβ1-42 or Aβ25-35 insult, 12-16 days, 0% AO) was “well preserved neuronal and neurite morphologies”. For the same compound, the “Aβ1-42 or Aβ25-35 induced neurotoxicity, younger neurons” value ([6]; 2 μM, neurons 12-16 d.i.v. (2-week old), 0% AO, 10 uM Aβ) was “fully block; also recorded: well protected”, the “LDH reading, younger neurons” value ([6]; 2 μM, same time or 2-3 hours post Aβ1-42 or Aβ25-35, day 16, 0% AO) was “down to a level lower than untreated (control) group” and the “neuronal and neurite morphologies, older neurons” value ([6]; 0.25-2 uM, same time as or 2-3 hour after Aβ insult, 90% AO, 1-6 days) was “well preserved neuronal and neurite morphologies”. The “MTS reading, older neurons” value ([6]; 0.25 to 1 μM, 3 hours after initiation of Aβ25-35 insult, 90% AO) was “up to control level”, the “Aβ1-42 and Aβ25-35 induced neurotoxicity, older neurons” value ([6]; 0.25 to 2 μM, neurons 21-23 d.i.v., 90% AO) was “fully blocked” and the “lowest dose giving full protection” value ([6]; administered 3 hours after initiation of Aβ25-35 insult) was 0.25 µM. For the same compound, the neuroprotective capacity (primary cortical neurons [1]; PAN-811 1-10 μM) was “good neuroprotective capacity; also recorded: significant neuroprotection”, the “protection from neuronal cell death (morphology)” value (cortical neurons [2]) was “efficient protection from neuronal cell death” and the “neuronal cell death after hypoxia” value (cortical neurons [2]; 21 μM, 48 h prior, during 24-h hypoxia and 48 h after) was “completely blocked the cell death”. For the same compound, the maximal toxicity [7] was 7.8%, the “extreme H/H-induced neuronal cell death” value (cortical neurons [8]; 100 μM) was “only partially blocked” and the “protection from neuronal cell death” value (cortical neurons [8]; ≦50 μM, extreme H/H) was “did not protect neuronal cell death”. For the same compound, the “reduction of basal level of ROS generation” value (primary cortical neurons [9]) was about 50%, the “reduction of H2O2-induced ROS generation” value (primary cortical neurons [9]; 1 h, then 300 μM H2O2 for 2 h) was about 30% and the solubility [10] was “better solubility in PEG-300/EtOH comparing to EtOH alone”. For the same compound, the neuroprotective capacity (primary cortical neurons [11]) was “good neuroprotective capacity”.
For “Aβ1-42: amyloid beta peptide (Aβ1-42) from Sigma, used as neurotoxic insult”, the “increase in LDH of the culture medium” value [12] was about 40%.
In the case of “Aβ25-35: amyloid beta peptide fragment from Oncogene or Bachem, used as neurotoxic insult (GSNKGAIIGLM; Amyloid-beta protein 42; UniProt P05067 696-706, looked up, fragment)”, the “increase in LDH of the culture medium” value [12] is reported as about 40%, the “decrease in MTS reading” value [12, 14] is reported as 7.5% and the “increase in medium LDH reading” value [12, 14] is reported as 12-18%. The “concentration able to induce neurotoxicity” value ([12]; 100% AO) was 80 µM.
With Vitamin E [reference compound] the neuroprotective capacity (primary cortical neurons [1]; known neuroprotectants) was “minimal neuroprotective capacity”.
